Measured values taken from US8541449B2, “Substituted isoquinolines and isoquinolinones as Rho kinase inhibitors” (Sanofi, priority 2008, dated 2013).

Assays:
Format in all cases: biochemical
recombinant human PKA = molecular target: T1, recombinant human PKA (Homo sapiens, UniProt P17612); assay: Determination of Protein Kinase A inhibition (Caliper peptide phosphorylation assay); conditions: recombinant human PKA versus ROCK II
T1 construct: Active recombinant human PKA (residues 1-351, N-terminal His-tag); His-tag (N); purchased Invitrogen, Karlsruhe, Germany
Protocol: (§1) Determination of Protein Kinase A and Protein Kinase G Inhibition
(§2) To measure PKA and PKG1-beta inhibition, IC50 values were determined according to the following protocol:
(§3) Active recombinant human PKG1-beta (full-length, with N-terminal His-tag) was purchased from Millipore GmbH, Schwalbach, Germany. Active recombinant human PKA (residues 1-351, N-terminal His-tag) was obtained from Invitrogen, Karlsruhe, Germany. The peptide substrate, Fluorescein-[…]-COOH, was obtained from JPT Peptide Technologies, Berlin, Germany. Adenosine-5′-triphosphate (ATP), bovine serum albumine (BSA), dimethylsulphoxide (DMSO), 4-(2-Hydroxyethyl)piperazine-1-ethanesulfonic acid (Hepes), Brij-35, dithiothreitol (DTT) and Pluronic F-68 were purchased from Sigma-Aldrich, Munich, Germany. Tris(hydroxymethyl)-aminomethane (Tris), magnesium chloride, NaOH, 1M HCl and EDTA were obtained from Merck Biosciences, Darmstadt, Germany. “Complete” protease inhibitor was from Roche Diagnostics, Mannheim, Germany.
(§4) Test compounds were diluted to the appropriate concentrations in buffer 1 (25 mM Tris-HCl, pH 7.4, 5 mM MgCl2, 2 mM DTT, 0.02% (w/v) BSA, 0.01% Pluronic F-68 and 3% DMSO). PKG1-beta and PKA were diluted to concentrations of 150 ng/ml and 30 ng/ml, respectively, in buffer 2. The peptide substrate and ATP were diluted to concentrations of 3 μM and 120 μM, respectively, in the buffer 2. Two μl of the compound solution were mixed with 2 μl of the diluted enzyme in a 384-well small volume microtiter plate (Greiner, Bio-One, Frickenhausen, Germany), and the kinase reaction was initiated by addition of 2 μl of the solution containing peptide substrate and ATP. After 60 min incubation at 32° C., the reaction was stopped by addition of 20 μl of a solution containing 100 mM Hepes-NaOH, pH 7.4, 0.015% (v/v) Brij-35, 45 mM EDTA and 0.227% chip coating reagent 1 (Caliper Lifescience Inc, Hopkinton, Mass.). Phosphorylation of the substrate peptide was then detected on a Caliper 3000 instrument essentially as described by Pommereau et al (J. Biomol. Screening 9(5), 409-416, 2004). Separation conditions were as follows: Pressure −1.3 psi, upstream voltage −1562 V, downstream voltage −500 V, sample sip time 200 ms. Positive controls (buffer 1 instead of compound) and negative controls (buffer 1 instead of compound and buffer 2 instead of kinase solution) were run in parallel on each plate. The following products/compounds were tested in said assay by using the respective form (salt or free base) obtained as in the examples described above and the following activities were measured.

[1] = molecular target: T2, recombinant human PKG1-beta (Homo sapiens, UniProt Q13976); assay: Determination of Protein Kinase G inhibition (Caliper peptide phosphorylation assay); conditions: recombinant human PKG1-beta versus ROCK II
T2 construct: Active recombinant human PKG1-beta (full-length, with N-terminal His-tag); His-tag (N); purchased Millipore GmbH, Schwalbach, Germany
T2 sequence (Q13976 1-686 isoform Q13976-2): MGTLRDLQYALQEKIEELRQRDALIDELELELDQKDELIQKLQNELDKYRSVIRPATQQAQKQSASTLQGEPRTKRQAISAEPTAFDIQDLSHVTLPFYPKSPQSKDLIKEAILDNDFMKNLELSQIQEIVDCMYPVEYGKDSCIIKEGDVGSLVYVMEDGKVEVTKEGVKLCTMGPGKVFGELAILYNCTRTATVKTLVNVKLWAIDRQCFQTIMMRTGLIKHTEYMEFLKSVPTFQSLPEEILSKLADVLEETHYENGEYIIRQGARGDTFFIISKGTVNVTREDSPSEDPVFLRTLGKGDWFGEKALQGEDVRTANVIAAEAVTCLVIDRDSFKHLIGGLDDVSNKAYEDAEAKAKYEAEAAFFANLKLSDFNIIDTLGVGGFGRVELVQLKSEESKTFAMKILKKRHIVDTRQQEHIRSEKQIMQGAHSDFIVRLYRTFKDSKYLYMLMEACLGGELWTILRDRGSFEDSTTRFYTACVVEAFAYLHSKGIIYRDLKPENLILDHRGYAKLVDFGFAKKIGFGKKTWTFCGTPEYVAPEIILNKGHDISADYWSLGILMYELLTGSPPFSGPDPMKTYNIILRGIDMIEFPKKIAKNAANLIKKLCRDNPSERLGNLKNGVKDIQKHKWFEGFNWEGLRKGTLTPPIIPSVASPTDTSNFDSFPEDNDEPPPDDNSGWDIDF
Protocol: as §1, §2, §3, §4

[2] = molecular target: T3, human recombinant ROCK II (Homo sapiens, UniProt O75116); assay: Determination of Rho kinase inhibition (Caliper peptide phosphorylation assay); conditions: 60 min at 32° C., negative decadal logarithm of the IC50
T3 construct: N-terminal His6-tagged recombinant human ROCK-II residues 11-552; His6 (N); purchased Millipore GmbH, Schwalbach, Germany
T3 sequence (O75116 11-552): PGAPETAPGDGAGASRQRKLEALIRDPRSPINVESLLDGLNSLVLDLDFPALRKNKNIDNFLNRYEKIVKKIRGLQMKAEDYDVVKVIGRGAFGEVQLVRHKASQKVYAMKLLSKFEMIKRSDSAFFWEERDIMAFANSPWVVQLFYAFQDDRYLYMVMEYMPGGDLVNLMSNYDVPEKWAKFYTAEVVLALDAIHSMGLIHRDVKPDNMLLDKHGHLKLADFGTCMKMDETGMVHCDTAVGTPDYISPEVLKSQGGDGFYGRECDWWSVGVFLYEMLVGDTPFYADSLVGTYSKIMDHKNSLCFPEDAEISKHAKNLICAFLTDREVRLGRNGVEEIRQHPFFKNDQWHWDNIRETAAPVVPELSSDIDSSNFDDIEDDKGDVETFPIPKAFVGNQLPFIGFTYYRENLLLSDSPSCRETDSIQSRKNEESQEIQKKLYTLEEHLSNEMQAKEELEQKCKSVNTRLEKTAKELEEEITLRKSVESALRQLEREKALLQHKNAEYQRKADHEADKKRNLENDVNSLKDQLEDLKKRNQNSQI
Protocol: Determination of Rho Kinase Inhibition
To measure Rho-kinase inhibition, IC50 values were determined according to the following protocol:
Active human recombinant ROCK II (N-terminal His6-tagged recombinant human ROCK-II residues 11-552) was purchased from Millipore GmbH, Schwalbach, Germany. The peptide substrate, Fluorescein-[…]-COOH, was obtained from JPT Peptide Technologies, Berlin, Germany. Adenosine-5′-triphosphate (ATP), bovine serum albumine (BSA), dimethylsulphoxide (DMSO), 4-(2-Hydroxyethyl)piperazine-1-ethanesulfonic acid (Hepes), Brij-35, dithiothreitol (DTT) and Pluronic F-68 were purchased from Sigma-Aldrich, Munich, Germany. Tris(hydroxymethyl)-aminomethane (Tris), magnesium chloride, NaOH, 1M HCl and EDTA were obtained from Merck Biosciences, Darmstadt, Germany. “Complete” protease inhibitor was from Roche Diagnostics, Mannheim, Germany.
Test compounds were diluted to the appropriate concentrations in buffer 1 (25 mM Tris-HCl, pH 7.4, 5 mM MgCl2, 2 mM DTT, 0.02% (w/v) BSA, 0.01% Pluronic F-68 and 3% DMSO). The ROCK II enzyme was diluted to a concentration of 100 ng/mL in buffer 2 (25 mM Tris-HCl, pH 7.4, 5 mM MgCl2, 2 mM DTT and 0.02% (w/v) BSA). The peptide substrate and ATP were diluted to concentrations of 3 μM and 120 μM, respectively, in the buffer 2. Two μl of the compound solution were mixed with 2 μl of the diluted enzyme in a 384-well small volume microtiter plate (Greiner, Bio-One, Frickenhausen, Germany), and the kinase reaction was initiated by addition of 2 μl of the solution containing peptide substrate and ATP. After 60 min incubation at 32° C., the reaction was stopped by addition of 20 μl of a solution containing 100 mM Hepes-NaOH, pH 7.4, 0.015% (v/v) Brij-35, 45 mM EDTA and 0.227% chip coating reagent 1 (Caliper Lifescience Inc, Hopkinton, Mass.). Phosphorylation of the substrate peptide was then detected on a Caliper 3000 instrument essentially as described by Pommereau et al (J. Biomol. Screening 9(5), 409-416, 2004). Separation conditions were as follows: Pressure −1.3 psi, upstream voltage −1562 V, downstream voltage −500 V, sample sip time 200 ms. Positive controls (buffer 1 instead of compound) and negative controls (buffer 1 instead of compound and buffer 2 instead of ROCK II) were run in parallel on each plate.
The following products/compounds were tested in said assay by using the respective form (salt or free base) obtained as in the examples described above and the following activities were measured

Structure (SMILES) | Selectivity against PKA (recombinant human PKA) | Selectivity against PKG [1] | IC50 [2] [nM] | pIC50 [2]
CCC(N)C1CCC(Oc2cc3cc[nH]c(=O)c3cc2Cl)CC1 (single isomer, unassigned) [Example 129, 6-[4-(1-Amino-propyl)-cyclohexyoxy]-7-chloro-2H-isoquinolin-1-one] | >100 | >10 | 10 to 100 | 
CCC(N)C1CCC(Oc2cc3cc[nH]c(=O)c3cc2Cl)CC1 (single isomer, unassigned) [Example 130, 6-[4-(1-Amino-propyl)-cyclohexyloxy]-7-chloro-2H-isoquinolin-1-one] | >300 | >10 |  | ++++++ (7.0≦pIC50<8.0)
NC(C1CCC(Oc2cc3cc[nH]c(=O)c3cc2Cl)CC1)C1CC1 (single isomer, unassigned) [Example 131, 6-[4-(Amino-cyclopropyl-methyl)-cyclohexyloxy]-7-chloro-2H-isoquinolin-1-one] | >10 | >10 | 100 to 1000 | 
CCC(N)[C@]1(c2ccc(F)cc2)CC[C@H](Oc2cc3cc[nH]c(=O)c3cc2Cl)CC1 (stereo partly drawn) [Example 1, cis-6-[4-(1-Amino-propyl)-4-(4-fluoro-phenyl)-cyclohexyloxy]-7-chloro-2H-isoquinolin-1-one] | >1000 | >1000 |  | +++++++ (8.0≦pIC50)
NC1([C@]2(c3ccccc3)CC[C@H](Oc3cc4cc[nH]c(=O)c4cc3Cl)CC2)CC1 [Example 2, cis-6-[4-(1-Amino-cyclopropyl)-4-phenyl-cyclohexyloxy]-7-chloro-2H-isoquinolin-1-one] | >1000 | >1000 |  | +++++++ (8.0≦pIC50)
CCC(N)[C@]1(c2ccccc2)CC[C@H](Oc2cc3cc[nH]c(=O)c3cc2Cl)CC1 (stereo partly drawn) [Example 3, cis-6-{[4-(1-aminopropyl)-4-phenylcyclohexyl]oxy}-7-chloro-2H-isoquinolin-1-one] | >1000 | >300 |  | +++++++ (8.0≦pIC50)
CCCC(N)[C@]1(c2ccccc2)CC[C@H](Oc2cc3cc[nH]c(=O)c3cc2Cl)CC1 (stereo partly drawn) [Example 4, cis-6-[4-(1-Amino-butyl)-4-phenyl-cyclohexyloxy]-7-chloro-2H-isoquinolin-1-one] | >1000 | >100 |  | +++++++ (8.0≦pIC50)
CCCC(N)[C@]1(c2ccc(F)cc2)CC[C@H](Oc2cc3cc[nH]c(=O)c3cc2Cl)CC1 (stereo partly drawn) [Example 5, cis-6-[4-(1-Amino-butyl)-4-(4-fluoro-phenyl)-cyclo-hexyloxy]-7-chloro-2H-isoquinolin-1-one] | >1000 | >300 |  | +++++++ (8.0≦pIC50)
CCC(N)[C@]1(c2ccc(Br)cc2)CC[C@H](Oc2cc3cc[nH]c(=O)c3cc2Cl)CC1 (stereo partly drawn) [Example 6, cis-6-[4-(1-Amin-propyl)-4-(4-bromo-phenyl)-cyclohexyloxy]-7-chloro-2H-isoquinolin-1-one] | >1000 | >300 |  | +++++++ (8.0≦pIC50)
CCC(N)[C@]1(c2ccccc2Br)CC[C@H](Oc2cc3cc[nH]c(=O)c3cc2Cl)CC1 (stereo partly drawn) [Example 7, cis-6-[4-(1-Amino-propyl)-4-(2-bromo-phenyl)-cyclohexyloxy]-7-chloro-2H-isoquinolin-1-one] | >1000 | >300 |  | +++++++ (8.0≦pIC50)
CCC(N)[C@]1(c2ccc(C(F)(F)F)cc2)CC[C@H](Oc2cc3cc[nH]c(=O)c3cc2Cl)CC1 (stereo partly drawn) [Example 8, cis-6-[4-(1-Amino-propyl)-4-(4-trifluoromethyl-phenyl)-cyclo-hexyloxy]-7-chloro-2H-isoquinolin-1-one] | >1000 | >300 |  | +++++++ (8.0≦pIC50)
CCC(N)[C@]1(c2ccccc2F)CC[C@H](Oc2cc3cc[nH]c(=O)c3cc2Cl)CC1 (stereo partly drawn) [Example 9, cis-6-[4-(1-Amino-propyl)-4-(2-fluoro-phenyl)-cyclohexyloxy]-7-chloro-2H-isoquinolin-1-one] | >1000 | >100 |  | +++++++ (8.0≦pIC50)
CCC(N)[C@]1(c2ccccc2Cl)CC[C@H](Oc2cc3cc[nH]c(=O)c3cc2Cl)CC1 (stereo partly drawn) [Example 10, cis-6-[4-(1-Amino-propyl)-4-(2-chloro-phenyl)-cyclohexyloxy]-7-chloro-2H-iso quinolin-1-one] | >100 | >100 |  | +++++++ (8.0≦pIC50)
CCC(N)[C@]1(c2ccccc2)CC[C@H](Oc2cc3cc[nH]c(=O)c3cc2C)CC1 (stereo partly drawn) [Example 11, cis-6-[4-(1-Amino-propyl)-4-phenyl-cyclohexyloxy]-7-methyl-2H-iso quinolin-1-one] | >300 | >10 |  | ++++++ (7.0≦pIC50<8.0)
